# Reference: patent US20200323897A1, “METHODS FOR DISTRIBUTING AGENTS TO AREAS OF BRAIN” (Medtronic, Inc., priority 2010, published 2020)
# How the values were obtained:
# [1] = Intrathecal (L2) infusion at low flow rates, distribution tracked by MRI; format: in vivo, rhesus monkey
# Protocol: (§1) CADD ambulatory infusion pumps were used to deliver gadolinium (Gd) labeled diethylene triamine pentaacetic acid (DTPA) or Gd-labeled albumin to rhesus monkeys, either intrathecally or intracerebroventricularly. Distribution of the Gd-labeled agents was tracked in-life via magnetic resonance imaging (MRI).
# (§2) For the Gd-DTPA studies, various concentrations of the Gd-DTPA were administered. The Gd-DTPA was administered intrathecally at L2 or intracerebroventricularly via a lateral ventricle at a variety of flow rates. Within a given monkey various flow rates were tested, followed by a washout period with phosphate buffered saline (PBS). An example study design that was used is presented below in Table 2:
# While not detectable at lower concentrations, it is believed that the distribution of the lower concentration agent was similar to that observed at the 70 mg/ml concentration at similar flow rates. […] FIG. 6A is an MRI image of the same monkey prior to infusion of Gd-DTPA.
# For the Gd-albumin studies, various concentrations of the Gd-albumin were administered intrathecally at L2 at various flow rates. FIGS. 9A-E are MRI images of rhesus monkeys receiving intrathecal Gd-albumin.
# [2] = Intracerebroventricular (lateral ventricle) infusion at low flow rates, distribution tracked by MRI; format: in vivo, rhesus monkey; conditions: ICV
# Protocol: as §1, §2
# Referring now to FIGS. 8A-F, MM images of a rhesus monkey receiving various concentrations of Gd-DPTA intracerebroventricularly at various flow rates are shown. FIG. 8A is an MRI image of a monkey receiving PBS prior to infusion of the Gd-DPTA. FIG. 8B is an MM image of a monkey receiving 486 mg/ml at 0.048 ml/day. FIG. 8C is an MRI image of a monkey receiving 280 mg/ml at 0.1 ml/day. FIG. 8D is an MRI image of a monkey receiving 70 mg/ml at 0.4 ml/day. FIG. 8E is an MRI image of a monkey receiving 35 mg/ml at 0.8 ml/day. FIG. 8F is an MM image of a monkey receiving 22 mg/ml at 1.2 ml/day. […] Accordingly, broad distribution appears to be achievable at low flow rates, regardless of the CSF site of administration.
# Referring now to FIGS. 11A-F, MRI images of a rhesus monkey receiving various concentrations of Gd-albumin intracerebroventricularly at various flow rates are shown. FIG. 11A is an MM image of a monkey receiving PBS prior to infusion of the Gd-albumin. FIG. 11B is an MM image of a monkey receiving 100 mg/ml at 0.1 ml/day at one day of infusion. FIG. 11C is an MRI image of a monkey receiving 100 mg/ml at 0.4 ml/day at one day of infusion. FIG. 11D is an MRI image of a monkey receiving 100 mg/ml at 0.4 ml/day at three days of infusion. FIG. 11E is an MRI image of a monkey receiving 100 mg/ml at 0.8 ml/day at one day of infusion. FIG. 11F is an MRI image of a monkey receiving 64 mg/ml at 1.2 ml/day at one day of infusion.
# [3] = Infusion into the CSF at low flow rates (IT or ICV), overall statements on distribution; format: in vivo, rhesus monkey
# Source text: as §1
# [4] = humans, intrathecal, constant rate of 0.5 ml/day; cited from earlier work
Structure (SMILES),"uptake by brain tissue (FIG. 7B) ([1]; IT L2, 70 mg/ml, 2.4 ml/day)","distribution around the spinal cord (FIG. 7D) ([1]; IT L2, 70 mg/ml, 2.4 ml/day, steady state)","distribution in the CSF (FIG. 6) ([1]; IT L2, all flow rates of about 0.4 ml/day or greater)","distribution in the CSF ([1]; IT, 0.1 mL/day)","distribution in the CSF ([1]; IT, 0.4 mL/day, 70 mg/ml)","detectability by MRI ([1]; IT, 0.4 mL/day, lower concentrations (17.5 mg/ml, 5.8 mg/ml, 2.9 mg/ml))","MRI signal intensity ([1]; IT, 2.4 ml/day (100 microliters per hour))",steady state distribution in the CSF ([2]; 0.048 mL/day),steady state distribution in the CSF ([2]; 0.1 mL/day),distribution within the CSF ([2]; 0.1 mL/day for a period of 6 hours),"distribution in the CSF (FIG. 8) ([2]; flow rates of about 0.05 ml/day or greater, 22-486 mg/ml)",distribution following infusion into the CSF [3],supraspinal side effects [4]
"O=C([O-])CN(CCN(CC(=O)[O-])CC(=O)O)CCN(CC(=O)[O-])CC(=O)O.[Gd+3] [Gd-DTPA, gadolinium (Gd) labeled diethylene triamine pentaacetic acid (DTPA)]",appears to be taken up by the parenchymal tissue of the brain,distributed in a circumferential manner around the intrathecal space,broad distribution was observed,confined the molecule in the IT space,broadly distributed throughout the CSF,not appreciably detectable by MRI,signal was most intense,"evident in the CSF compartments in and around the brain, but not the spinal cord",complete CSF coverage,distributed broadly throughout the CSF in and around the brain and spinal cord,"broadly distributed in the CSF, including in the intrathecal space",broadly distributed,
NCC(CC(=O)O)c1ccc(Cl)cc1 (centres unmarked) [baclofen],,,,,,,,,,,,,do not appear to suffer from any supraspinal side effects
CN1CC[C@]23c4c5ccc(O)c4O[C@H]2[C@@H](O)C=C[C@H]3[C@H]1C5 [morphine],,,,,,,,,,,,,do not appear to suffer from any supraspinal side effects
